In US20260041620A1, “NOVEL AMINO ACID BASED SALTS, COMPOSITIONS AND METHODS FOR TREATING SKIN AND IMPROVING SKIN REJUVENATION AND LONGEVITY” (Sytheon Ltd, priority 2023, published 2026):

Tests used:
[1] = biological target: T1, HDAC6 (Homo sapiens, UniProt Q9UBN7); settings: reported, abcam; cited from earlier work
T1 sequence (Q9UBN7 1-1215): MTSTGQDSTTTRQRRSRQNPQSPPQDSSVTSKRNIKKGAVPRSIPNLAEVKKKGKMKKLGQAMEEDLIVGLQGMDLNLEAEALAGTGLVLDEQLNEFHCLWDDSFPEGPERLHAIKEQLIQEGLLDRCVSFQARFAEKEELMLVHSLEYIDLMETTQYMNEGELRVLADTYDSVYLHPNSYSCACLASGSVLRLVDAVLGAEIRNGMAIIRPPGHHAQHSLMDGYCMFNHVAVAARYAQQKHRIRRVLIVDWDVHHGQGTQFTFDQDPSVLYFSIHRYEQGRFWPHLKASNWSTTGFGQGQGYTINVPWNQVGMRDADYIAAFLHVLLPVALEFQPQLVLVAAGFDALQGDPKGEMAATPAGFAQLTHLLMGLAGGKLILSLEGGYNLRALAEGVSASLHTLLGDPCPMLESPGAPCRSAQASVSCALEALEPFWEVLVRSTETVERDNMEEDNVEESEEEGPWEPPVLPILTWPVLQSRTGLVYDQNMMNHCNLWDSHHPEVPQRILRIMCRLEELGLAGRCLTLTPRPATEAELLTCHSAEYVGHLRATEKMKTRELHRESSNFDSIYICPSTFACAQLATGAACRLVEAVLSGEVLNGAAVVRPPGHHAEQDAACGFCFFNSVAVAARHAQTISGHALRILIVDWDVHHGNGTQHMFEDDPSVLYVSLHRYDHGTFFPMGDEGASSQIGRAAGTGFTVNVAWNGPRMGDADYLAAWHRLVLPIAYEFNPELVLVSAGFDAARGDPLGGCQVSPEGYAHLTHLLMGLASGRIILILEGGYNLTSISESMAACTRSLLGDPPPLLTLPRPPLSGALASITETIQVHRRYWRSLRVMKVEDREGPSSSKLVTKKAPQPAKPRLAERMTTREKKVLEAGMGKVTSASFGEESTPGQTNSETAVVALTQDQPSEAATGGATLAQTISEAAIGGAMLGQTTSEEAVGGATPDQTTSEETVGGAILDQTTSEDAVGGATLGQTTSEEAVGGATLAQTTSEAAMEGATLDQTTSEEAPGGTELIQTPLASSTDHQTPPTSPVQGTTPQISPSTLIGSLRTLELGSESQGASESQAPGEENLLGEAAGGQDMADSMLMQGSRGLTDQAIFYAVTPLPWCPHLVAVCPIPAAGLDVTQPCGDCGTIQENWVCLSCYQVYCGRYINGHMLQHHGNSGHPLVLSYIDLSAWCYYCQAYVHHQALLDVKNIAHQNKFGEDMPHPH

[2] = biological target: T2, COX-2 (Homo sapiens, UniProt P35354); experiment: biochemical
T2 sequence (P35354 18-604): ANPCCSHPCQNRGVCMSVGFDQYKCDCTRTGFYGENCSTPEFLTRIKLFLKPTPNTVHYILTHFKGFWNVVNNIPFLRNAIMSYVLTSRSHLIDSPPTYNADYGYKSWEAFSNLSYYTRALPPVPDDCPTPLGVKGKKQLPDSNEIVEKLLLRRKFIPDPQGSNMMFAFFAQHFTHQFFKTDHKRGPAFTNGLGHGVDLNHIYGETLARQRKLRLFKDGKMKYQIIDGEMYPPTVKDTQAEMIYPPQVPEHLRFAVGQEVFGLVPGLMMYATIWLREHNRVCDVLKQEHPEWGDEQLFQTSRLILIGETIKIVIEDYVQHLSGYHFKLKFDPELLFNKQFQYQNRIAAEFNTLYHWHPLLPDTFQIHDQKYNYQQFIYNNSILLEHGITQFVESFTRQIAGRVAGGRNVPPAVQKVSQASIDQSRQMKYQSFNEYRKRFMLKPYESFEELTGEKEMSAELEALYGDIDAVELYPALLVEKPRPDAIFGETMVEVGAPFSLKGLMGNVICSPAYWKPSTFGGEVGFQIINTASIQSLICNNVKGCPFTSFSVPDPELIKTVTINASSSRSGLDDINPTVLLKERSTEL
Experimental: A 0.1 gram sample of each test material was dissolved in 1 mL propanediol make a stock solution, each of which was subject to 1 to 2 serial dilutions using buffer for use in determining the IC50 Testing and analysis was performed in accordance with the protocol of the COX-2 Kt (Cayman Catalog #701080) (Cayman catalog #62160).

[3] = biological target: HDAC2 (Homo sapiens, UniProt Q92769); settings: reported, abcam; cited from earlier work
Chain of HDAC2 (Q92769 whole entry): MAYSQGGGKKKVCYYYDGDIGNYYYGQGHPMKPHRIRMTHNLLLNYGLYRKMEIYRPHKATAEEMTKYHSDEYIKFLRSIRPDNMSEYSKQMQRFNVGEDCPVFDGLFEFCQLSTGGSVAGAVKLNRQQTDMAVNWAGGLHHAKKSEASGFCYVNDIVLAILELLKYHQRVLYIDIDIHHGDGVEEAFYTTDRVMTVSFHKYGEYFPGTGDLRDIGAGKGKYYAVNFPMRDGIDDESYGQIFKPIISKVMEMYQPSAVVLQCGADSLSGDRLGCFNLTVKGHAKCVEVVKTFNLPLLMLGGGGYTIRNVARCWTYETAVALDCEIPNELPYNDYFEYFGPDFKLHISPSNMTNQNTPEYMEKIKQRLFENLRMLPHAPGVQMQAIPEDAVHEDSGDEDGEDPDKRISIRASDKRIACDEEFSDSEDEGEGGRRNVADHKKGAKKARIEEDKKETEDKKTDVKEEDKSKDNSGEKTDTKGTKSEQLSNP

SMILES: CCCC(=O)[O-].[Na+] [Sodium butyrate, reference compound]
- inhibition of HDAC6 [1]: no inhibition
- IC50 [2]: 2.67 mM
- IC50 [3]: 0.4 mM
